Experimental findings from US20240368168A1, “SARM1 ENZYME ACTIVITY INHIBITOR AND APPLICATION THEREOF” (ARTIVILA BIOPHARMA, priority 2021, published 2024) are described below.

This assay has as its target T1, dN-SARM1 protein (Homo sapiens, UniProt Q6SZW1).
T1 construct: the N-terminal mitochondrial localization signal peptide of SARM1 was removed
T1 sequence (Q6SZW1 28-724): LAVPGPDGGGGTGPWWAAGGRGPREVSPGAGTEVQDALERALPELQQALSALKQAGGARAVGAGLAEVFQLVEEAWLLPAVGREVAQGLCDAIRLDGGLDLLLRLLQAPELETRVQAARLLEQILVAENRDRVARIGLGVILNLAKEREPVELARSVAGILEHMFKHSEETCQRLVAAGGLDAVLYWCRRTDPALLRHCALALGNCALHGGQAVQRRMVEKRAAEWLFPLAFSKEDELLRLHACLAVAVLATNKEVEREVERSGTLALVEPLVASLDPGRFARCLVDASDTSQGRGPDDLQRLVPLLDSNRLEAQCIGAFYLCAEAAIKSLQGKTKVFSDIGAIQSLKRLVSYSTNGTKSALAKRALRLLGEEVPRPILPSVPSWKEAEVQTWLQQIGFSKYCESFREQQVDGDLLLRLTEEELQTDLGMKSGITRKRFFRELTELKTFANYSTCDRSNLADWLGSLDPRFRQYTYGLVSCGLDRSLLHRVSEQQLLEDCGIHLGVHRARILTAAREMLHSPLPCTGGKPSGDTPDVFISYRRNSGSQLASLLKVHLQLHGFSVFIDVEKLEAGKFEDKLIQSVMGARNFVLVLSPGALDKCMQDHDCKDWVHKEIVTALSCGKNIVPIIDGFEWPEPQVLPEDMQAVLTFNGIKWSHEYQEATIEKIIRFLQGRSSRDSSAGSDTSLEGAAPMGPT
The assay can be described thus: In vitro biochemical assay for inhibiting SARM1 enzymatic activity (IC50), PC6 fluorescence method. Conditions: 50 μM NAD, 50 μM PC6, 50 μM NMN activator. The procedure: 200 μM compound was first added to a solution of 0.05 μg/ml dN-SARM1 in 50 mM Tris-HCl (pH 7.5). Half of the mixture was added to an equal volume of a solution of 0.05 μg/ml dN-SARM1 in 50 mM Tris-HCl (pH 7.5) and mixed. The drug was diluted 6 times in this manner, with the final concentrations being 200, 100, 50, 25, 12.5, 6.25, 3.125 μM, or 200, 50, 12.5, 3.125, 0.78, 0.195, 0.049 μM, respectively. The protein without inhibitors added, being used as control group, was incubated at room temperature for 10 minutes.
50 μM NAD, 50 μM PC6 as substrate and 50 μM NMN as activator were added to the dN-SARM1 protein incubated with the inhibitor and reacted for 30 minutes at room temperature. The concentration of each component was the final concentration in the reaction system.
During the reaction, PC6 fluorescence spectrum dynamics were detected by a microplate reader, wherein the excitation wavelength and emission wavelength for detection were 390 nm and 520 nm, respectively. Finally, the reaction rate was used to express the activity of the protein, and the half inhibitory concentration was calculated. The higher the reaction rate, the stronger the protein activity, and the lower the inhibitory efficiency of the compound.
The dose curve of compounds inhibiting SARM1 enzymatic activity was determined using the above method.

Each structure is given as a SMILES string. pIC50: −log10 of the molar value. Structures can show the parent of a compound that is named as a salt. Some results are limits rather than exact numbers.

Consider `COc1ccc2ncc(-c3cccc(S(N)(=O)=O)c3)n2c1` [Compound 5], for which the pIC50 – broadly, −log10 of the IC50, conventionally taken in molar units – was 5.00 to 6.00. The compound `COc1cccc(-c2cnc3ccc(N(C)C(=O)OC(C)(C)C)cn23)n1` [Compound 16] gave a pIC50 of 5.00 to 6.00. Take `CN(C(=O)OC(C)(C)C)c1ccc2ncc(-c3ccccn3)n2c1` [Compound 18]: the pIC50 is 5.00 to 6.00. In turn, `COC(=O)c1ccn2c(-c3ccccc3)cnc2c1` [Compound 23] had a pIC50 of 5.00 to 6.00.

Turning to `CC(=O)N(C)c1ccc2ncc(-c3ccccc3)n2c1` [Compound 42], the negative-log IC50 (pIC50) was greater than 6.00.

In turn, `CC(=O)N(C)c1ccc2ncc(-c3cccs3)n2c1` [Compound 43] had a pIC50 of 5.00 to 6.00. `CNc1ccc2ncc(-c3cccc(S(=O)(=O)N(C)C(=O)OC(C)(C)C)c3)n2c1` [Compound 59, tert-butyl methyl ((3-(6-(methylamino)imidazo[1,2-a]pyridin-3-yl)phenyl)sulfonyl)carbamate] had a pIC50 of 5.00 to 6.00. Compound `CNc1ccc2ncc(-c3cccc(S(=O)(=O)NC)c3)n2c1` [Compound 60, N-methyl-3-(6-(methylamino)imidazo[1,2-a]pyridin-3-yl)benzenesulfonamide] showed a pIC50 of 5.00 to 6.00.

Take `CN(C(=O)OC(C)(C)C)c1ccc2ncc(-c3cccc(S(N)(=O)=O)c3)n2c1` [Compound 61, tert-butyl methyl (3-(3-sulfamoylphenyl)imidazo[1,2-a]pyridin-6-yl)carbamate]: the pIC50 is 5.00 to 6.00. On to `CNc1ccc2ncc(-c3cccc(S(N)(=O)=O)c3)n2c1` [Compound 62, 3-(6-(methylamino)imidazo[1,2-a]pyridin-3-yl) benzenesulfonamide], for which the pIC50 was 5.00 to 6.00.

With `CNc1ccc2ncc(-c3cccc(C(N)=O)c3)n2c1` [Compound 64], the pIC50 was 5.00 to 6.00.

Compound `CNc1ccc2ncc(-c3ccccc3C)n2c1` [Compound 67] showed a pIC50 of 5.00 to 6.00. `CNc1ccc2ncc(-c3ccc(OC)cc3)n2c1` [Compound 72] gave a pIC50 of 5.00 to 6.00. Compound `CNc1ccc2ncc(-c3cccnc3)n2c1` [Compound 73] gave a negative logarithm of the IC50 (pIC50) of 5.00 to 6.00. With `CNc1ccc2ncc(-c3ccncc3)n2c1` [Compound 74], the pIC50 is 5.00 to 6.00. `CNc1ccc2ncc(-c3ccccn3)n2c1` [Compound 76]: the pIC50 is 5.00 to 6.00.

`CC(C)(C)OC(=O)N1CCOCCN(C(=O)OC(C)(C)C)S(=O)(=O)c2cccc(c2)-c2cnc3ccc1cn23` [Compound 80, di-tert-butyl(E)-7-oxa-3-thio-4,10-diaza-1(3,6)-imidazol[1,2-a]pyridin-2(1,3)-phenylcyclodecane-4,10-dicarboxylate 3,3-dioxide] had a pIC50 of 5.00 to 6.00.

In turn, `O=S1(=O)NCCOCCNc2ccc3ncc(n3c2)-c2cccc1c2` [Compound 81, (E)-7-oxa-3-thia-4,10-diaza-1(3,6)-imidazo[1,2-a]pyridine-2(1,3)-benzocyclodecane 3,3-dioxide] showed a pIC50 of 5.00 to 6.00. To `COc1ccc2ncc(Nc3ccccc3)n2c1` [Compound 82, 6-methoxy-N-phenylimidazo[1,2-a]pyridin-3-amine] belongs 5.00 to 6.00.

Turning to `CN(C(=O)OC(C)(C)C)c1ccc2ncc(C3=CCCCC3)n2c1` [Compound 83], the pIC50 was 5.00 to 6.00. `CNc1ccc2ncc(C3CCCCC3)n2c1` [Compound 85, 3-cyclohexyl-N-methylimidazo[1,2-a]pyridin-6-amine] had a pIC50 of 5.00 to 6.00.

`Brc1cnc2ccc(NC3CCOC3)cn12` (centres unmarked) [Compound 86, 3-bromo-N-(tetrahydrofuran-3-yl)imidazo[1,2-a]pyridin-6-amine]: the pIC50 was greater than 6.00. `NS(=O)(=O)c1cccc(-c2cnc3ccc(N[C@@H]4CCCNC4)cn23)c1` [Compound 89, (R)-3-(6-(piperidin-3-ylamino)imidazo[1,2-a]pyridin-3-yl)benzenesulfonamide] had a pIC50 greater than 6.00. `CN(c1ccc2ncc(-c3ccccc3)n2c1)S(C)(=O)=O` [Compound 91, N-methyl-N-(3-phenylimidazo[1,2-a]pyridin-6-yl)methanesulfonamide] showed a pIC50 of 5.00 to 6.00.

Turning to `CC(=O)N(C)c1ccc2ncc(-c3ccccc3Cl)n2c1` [Compound 92, N-(3-(2-chlorophenyl)imidazo[1,2-a]pyridin-6-yl)-N-methylacetamide], the pIC50 is 5.00 to 6.00. Turning to `Cc1ncsc1-c1ccc(CNC(=O)[C@@H]2C[C@@H](O)CN2C(=O)[C@@H](NC(=O)COCCOCC(=O)N(C)c2ccc3ncc(-c4ccccc4Cl)n3c2)C(C)(C)C)cc1` [Compound 117, (2S,4R)-1-((S)-12-(tert-butyl)-2-(3-(2-chlorophenyl)imidazo[1,2-a]pyridin-6-yl)-3,10-dioxo-5,8-dioxa-2,11-diazahexadecane-13-acyl)-4-hydroxy-N-(4-(4-methylthiazol-5-yl)benzyl)pyrrolidin-2-carboxamide], the pIC50 was 5.00 to 6.00. In turn, `CNc1ccc2ncc(-c3cccc(NC(=O)COCCOCCOCC(=O)N[C@H](C(=O)N4C[C@H](O)C[C@H]4C(=O)NCc4ccc(-c5scnc5C)cc4)C(C)(C)C)c3)n2c1` [Compound 120, (2S,4R)-1-((S)-2-(tert-butyl)-14-((3-(6-(methylamino)imidazo[1,2-a]pyridin-3-yl)phenyl)amino)-4,14-dioxo-6,9,12-trioxa-3-azatetradecanoyl)-4-hydroxy-N-(4-(4-methylthiazol-5-yl)benzyl)pyrrolidin-2-carboxamide hydrochloride] gave a pIC50 greater than 6.00. The compound `CNc1ccc2ncc(-c3cccc4c3C(=O)NC4)n2c1` [Compound 165] showed a pIC50 greater than 6.00. With `CNc1ccc2ncc(-c3ccnc4[nH]ccc34)n2c1` [Compound 166], the negative-log IC50 (pIC50) is greater than 6.00. Consider `CNc1ccc2ncc(-c3cccc(NC(=O)c4ccccc4)n3)n2c1` [Compound 172], for which the pIC50 is greater than 6.00. As to `CN(C(=O)OC(C)(C)C)c1ccc2ncc(-c3cccc4nccn34)n2c1` [Compound 173], the pIC50 is 5.00 to 6.00.

`CNC(=O)c1ccccc1-c1cnc2ccc(N(C)C(=O)OC(C)(C)C)cn12` [Compound 174]: the pIC50 was greater than 6.00. `CN(C(=O)OC(C)(C)C)c1ccc2ncc(-c3ccccc3C(=O)NC3CCOCC3)n2c1` [Compound 175]: the pIC50 was greater than 6.00. To `CNC(=O)c1ccccc1-c1cnc2ccc(NC)cn12` [Compound 176] belongs 5.00 to 6.00; to `CNc1ccc2ncc(-c3ccccc3C(=O)NC3CCOCC3)n2c1` [Compound 177], 5.00 to 6.00. Compound `CN(C(=O)OC(C)(C)C)c1ccc2ncc(-c3cccc(-n4cccn4)c3)n2c1` [Compound 178] gave a pIC50 greater than 6.00.

`CNc1ccc2ncc(-c3cccc(-n4cccn4)c3)n2c1` [Compound 179]: the pIC50 is greater than 6.00. Compound `CNc1ccc2ncc(-c3cccc(N)n3)n2c1` [Compound 180] showed a negative logarithm of the IC50 (pIC50) of 5.00 to 6.00. To `CN(C(=O)OC(C)(C)C)c1ccc2ncc(-c3ccnc(NC(=O)c4ccccc4)c3)n2c1` [Compound 182] belongs 5.00 to 6.00. The figure for `CN(C(=O)OC(C)(C)C)c1ccc2ncc(-c3ccnc4[nH]ccc34)n2c1` [Compound 184] is 5.00 to 6.00. To `CNc1ccc2ncc(-c3ccnnc3)n2c1` [Compound 186] belongs 5.00 to 6.00; to `CNc1ccc2ncc(-c3ccccc3C(C)NC(=O)C3CCOCC3)n2c1` (centres unmarked) [Compound 191], 5.00 to 6.00. In the case of `CNc1ccc2ncc(-c3ccc4cc[nH]c4n3)n2c1` [Compound 192], the pIC50 was 5.00 to 6.00. To `CNc1ccc2ncc(-c3ccc(NC(=O)C4CCOCC4)cn3)n2c1` [Compound 193] belongs 5.00 to 6.00. `CN(C(=O)OC(C)(C)C)c1ccc2ncc(-c3cnc(N)nc3)n2c1` [Compound 194] gave a pIC50 of 5.00 to 6.00. With `CNc1ccc2ncc(-c3cnc(N)nc3)n2c1` [Compound 195], the pIC50 was 5.00 to 6.00. On to `CN(C(=O)OC(C)(C)C)c1ccc2ncc(-c3ccc4[nH]ccc4n3)n2c1` [Compound 196], for which the pIC50 was 5.00 to 6.00. In the case of `CNc1ccc2ncc(-c3ccc4[nH]ccc4n3)n2c1` [Compound 197], the pIC50 was 5.00 to 6.00. Compound `CN(C(=O)OC(C)(C)C)c1ccc2ncc(-c3ccc4[nH]ccc4c3)n2c1` [Compound 199] showed a pIC50 of 5.00 to 6.00. As for `CNc1ccc2ncc(-c3cccc(-n4cccc4)c3)n2c1` [Compound 200], the pIC50 was 5.00 to 6.00.
